Results: patent US11426361B2, “Eye drops for treatment of irritation not due to infection” (Resdevco Research and Development Co. Ltd., priority 2017, dated 2022)

System: human corneal epithelial cells (HCEC cell line)
Test: Example 5: expression of barrier genes (Involucrin, Occludin, Filaggrin, Cadherin-1) at mRNA level by Q-PCR
Format: cell-based
Settings: three hours
Description: An experiment was performed to investigate the effect in vitro of a solution containing glycerol on human corneal epithelial cells, in particular, on the expression of barrier genes Involucrin, Occludin, Filaggrin, and Cadherin-1.
Immortalized human corneal epithelial cells (HCEC cell line) cultured in DMEM/F12 with 5% FBS and 10 ng/ml human epidermal growth factor (Invitrogen—Gibco). The cells were treated for three hours with one of the following three compositions: (a) an aqueous solution of glycerol (0.27% w/v); (b) 20 μg/ml Polyinosinic:polycytidylic acid (p(I:C), an activator of TLR3 to induce inflammation; and (c) a combination of the two previous compositions.
The expression of the barrier genes was determined at the mRNA level by use of quantitative “real-time” PCR (Q-PCR). Q-PCR was performed on an ABI Prism 7000 sequence detection system (Applied Biosystems, Foster City, Calif.) using the 5′ nuclease assay. Total RNA was isolated using TRIzol (Invitrogen) and 3 μg of total RNA were reverse-transcribed into cDNA by using 15 U of AMV reverse transcriptase (Promega, Madison, Wis., USA) and 0.025 μg/μl random primers (Promega). PCR amplification was performed by using the TaqMan primers and probes. As internal controls, transcripts of cyclophilin A (PPIA) were determined.

Row | Compound | effect on barrier-impairing actions of p(I:C) (barrier gene expression) (co-incubation with glycerol 0.27% during p(I:C) 20 μg/ml challenge) | expressions of Involucrin, Occludin, Filaggrin, and Cadherin-1 (p(I:C) 20 μg/ml alone)
1 | OCC(O)CO [glycerol] | significantly prevented the barrier-impairing actions of the TLR3 agonist | 
2 | Polyinosinic:polycytidylic acid [p(I:C)] |  | markedly decreased
